# Activity calls are given as the source filed them. The rule behind the calls is not given here.
# What was measured:
# Rattus norvegicus [1] = experiment: Effect on sodium level in urine in Sprague-Dawley rat at 10 mg/kg administered via oral gavage measured after 16 hrs by gravimetric analysis relative to vehicle-treated control; type: functional
# Rattus norvegicus [2] = experiment: Effect on phosphate level in urine in Sprague-Dawley rat at 10 mg/kg administered via oral gavage measured after 16 hrs by gravimetric analysis relative to vehicle-treated control; type: functional
# Rattus norvegicus [3] = experiment: Effect on sodium level in urine in Sprague-Dawley rat at 3 mg/kg administered via oral gavage measured after 16 hrs by gravimetric analysis relative to vehicle-treated control; type: functional
# Rattus norvegicus [4] = experiment: Effect on phosphate level in urine in Sprague-Dawley rat at 3 mg/kg administered via oral gavage measured after 16 hrs by gravimetric analysis relative to vehicle-treated control; type: functional
# Rattus norvegicus [5] = experiment: Inhibition of NHE3-mediated intestinal phosphate uptake in rat at 10 mg/kg, po administered with 33-labeled Pi; type: functional, organism-based
# Rattus norvegicus [6] = experiment: Inhibition of NHE3-mediated intestinal phosphate uptake in rat at 10 mg/kg, po administered with 33-labeled Pi in presence of glucose and calcium; type: functional, organism-based
# Rattus norvegicus [7] = experiment: Inhibition of NHE3-mediated intestinal phosphate uptake in rat at 10 mg/kg, po administered with 33-labeled Pi in presence of calcium; type: functional, organism-based
Structure (SMILES),Activity (Rattus norvegicus [1]),Activity (Rattus norvegicus [2]),also measured
CN1Cc2c(Cl)cc(Cl)cc2[C@H](c2cccc(S(=O)(=O)NCCOCCOCCOCCNC(=O)CN(CCOCCOCCN(CC(=O)NCCOCCOCCOCCNS(=O)(=O)c3cccc([C@@H]4CN(C)Cc5c(Cl)cc(Cl)cc54)c3)CC(=O)NCCOCCOCCOCCNS(=O)(=O)c3cccc([C@@H]4CN(C)Cc5c(Cl)cc(Cl)cc54)c3)CC(=O)NCCOCCOCCOCCNS(=O)(=O)c3cccc([C@@H]4CN(C)Cc5c(Cl)cc(Cl)cc54)c3)c2)C1,51%,95%,–
N=C(N)Nc1nc(-c2ccc(N3CCN(CCOCCOCCOCCNC(=O)CCOCCOCCOCCOCCOCCC(=O)NCCOCCOCCOCCN4CCN(c5ccc(-c6nc(NC(=N)N)nc7ccc(Cl)cc67)cc5)CC4)CC3)cc2)c2cc(Cl)ccc2n1,100%,–,–
CN1Cc2c(Cl)cc(Cl)cc2[C@H](c2cccc(S(=O)(=O)NCCOCCOCCN(C)C(=O)NCCCN(CCCNC(=O)N(C)CCOCCOCCNS(=O)(=O)c3cccc([C@@H]4CN(C)Cc5c(Cl)cc(Cl)cc54)c3)CCCNC(=O)N(C)CCOCCOCCNS(=O)(=O)c3cccc([C@@H]4CN(C)Cc5c(Cl)cc(Cl)cc54)c3)c2)C1,–,–,Activity (Rattus norvegicus [3]): 38%; Activity (Rattus norvegicus [4]): 68%
CN1Cc2c(Cl)cc(Cl)cc2[C@H](c2ccc(S(=O)(=O)NCCOCCOCCOCCNC(=O)COCC(=O)NCCOCCOCCOc3cccc(-c4nc(NC(=N)N)nc5ccc(Cl)cc45)c3)cc2)C1,87%,150%,–
CN1Cc2c(Cl)cc(Cl)cc2[C@@H](c2cccc(S(=O)(=O)NCCOCCOCCNC(=O)NCCCCNC(=O)NCCOCCOCCNS(=O)(=O)c3cccc([C@H]4CN(C)Cc5c(Cl)cc(Cl)cc54)c3)c2)C1,–,–,inhibition (Rattus norvegicus [5]): Active; inhibition (Rattus norvegicus [6]): Active; inhibition (Rattus norvegicus [7]): Active
CN1Cc2c(Cl)cc(Cl)cc2[C@@H](c2cccc(S(=O)(=O)NCCOCCOCCNC(=O)NCCCCNC(=O)NCCOCCOCCNS(=O)(=O)c3cccc([C@@H]4CN(C)Cc5c(Cl)cc(Cl)cc54)c3)c2)C1.Cl.Cl,90%,–,–
CN(C)[C@H]1Cc2c(Cl)cc(Cl)cc2[C@@H]1Oc1ccc(S(=O)(=O)N(C)CCOCCOCCNC(=O)NCCCCNC(=O)NCCOCCOCCN(C)S(=O)(=O)c2ccc(O[C@H]3c4cc(Cl)cc(Cl)c4C[C@@H]3N(C)C)cc2)cc1,49%,49%,–
O=C(NCCCCNC(=O)NCCOCCOCCOCCNS(=O)(=O)c1ccc(O[C@H]2c3ccccc3C[C@@H]2N2CCCCC2)cc1)NCCOCCOCCOCCNS(=O)(=O)c1ccc(O[C@H]2c3ccccc3C[C@@H]2N2CCCCC2)cc1,33 - 79%,43 - 52%,–

# Reference: ChEMBL document CHEMBL3880442, “NHE3-binding compounds and methods for inhibiting phosphate transport” (2014)
